Measured values reported in ChEMBL document CHEMBL1201862, “PubChem BioAssay data set” (2004).
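48-hour exposure; five concentrations; linearly interpolated endpoints. At the GI50, growth is halved.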 The source made the active and inactive calls. Rule as the data show it: active = GI50 up to about 1.1 µM and inactive = higher.

How the values were obtained:
Test in all cases: growth of human tumour cells (NCI), 48 h
T47D = system: T47D
MDA-N = system: MDA-N
M19-MEL = system: M19-MEL
UO-31 = system: UO-31
NCI-H23 = system: NCI-H23
PC-3 = system: PC-3
SNB-75 = system: SNB-75
HT-29 = system: HT-29
SF-539 = system: SF-539
NCI-H460 = system: NCI-H460
KM12 = system: KM12
DMS-273 = system: DMS-273
SK-MEL-5 = system: SK-MEL-5
EKVX = system: EKVX
786-0 = system: 786-0
SNB-78 = system: SNB-78
MDA-MB-231 = system: MDA-MB-231
MDA-MB-435 = system: MDA-MB-435
RXF 393 = system: RXF 393
SF-295 = system: SF-295
COLO 205 = system: COLO 205
XF498 = system: XF498
UACC-257 = system: UACC-257
MCF7 = system: MCF7
HOP-18 = system: HOP-18
LOX IMVI = system: LOX IMVI
CCRF-CEM = system: CCRF-CEM
MOLT-4 = system: MOLT-4
M14 = system: M14
SN12C = system: SN12C
SF-268 = system: SF-268
HOP-62 = system: HOP-62
DMS-114 = system: DMS-114
Hs-578T = system: Hs-578T
KM-20L2 = system: KM-20L2
NCI-H226 = system: NCI-H226
A549 = system: A549
HCT-15 = system: HCT-15
SK-MEL-2 = system: SK-MEL-2
DLD-1 = system: DLD-1
TK-10 = system: TK-10
BT-549 = system: BT-549
DU-145 = system: DU-145
UACC-62 = system: UACC-62
K562 = system: K562
SK-MEL-28 = system: SK-MEL-28
OVCAR-8 = system: OVCAR-8
NCI-H522 = system: NCI-H522
Malme-3M = system: Malme-3M
OVCAR-3 = system: OVCAR-3
HCT-116 = system: HCT-116
RPMI-8226 = system: RPMI-8226
A498 = system: A498
HCC 2998 = system: HCC 2998
HL-60 = system: HL-60
CAKI-1 = system: CAKI-1
SK-OV-3 = system: SK-OV-3
HOP-92 = system: HOP-92
U-251 = system: U-251
OVCAR-5 = system: OVCAR-5
IGROV-1 = system: IGROV-1
SNB-19 = system: SNB-19
OVCAR-4 = system: OVCAR-4
NCI/ADR-RES = system: NCI/ADR-RES
ACHN = system: ACHN
SW-620 = system: SW-620
SR = system: SR
LXFL 529 = system: LXFL 529

Measured: GI50

COc1cc(/C=C/C(=O)Oc2ccccc2)ccc1C(=O)O/C=C/c1ccccc1
> 100 µM: HCT-15
inactive: T47D > 100 µM | MDA-N > 100 µM | M19-MEL > 100 µM | UO-31 > 100 µM | NCI-H23 > 100 µM | PC-3 > 100 µM | SNB-75 > 100 µM | HT-29 > 100 µM | SF-539 > 100 µM | NCI-H460 > 100 µM | KM12 > 100 µM | DMS-273 > 100 µM | SK-MEL-5 > 100 µM | EKVX > 100 µM | 786-0 > 100 µM | SNB-78 > 100 µM | MDA-MB-231 > 100 µM | MDA-MB-435 > 100 µM | RXF 393 > 100 µM | SF-295 > 100 µM | COLO 205 > 100 µM | XF498 > 100 µM | UACC-257 > 100 µM | MCF7 > 100 µM | HOP-18 > 100 µM | LOX IMVI > 100 µM | CCRF-CEM 17.7 µM | MOLT-4 > 93.3 µM | M14 > 100 µM | SN12C > 100 µM | SF-268 > 100 µM | HOP-62 > 100 µM | DMS-114 > 100 µM | Hs-578T > 100 µM | KM-20L2 > 100 µM | NCI-H226 > 100 µM | A549 > 100 µM | SK-MEL-2 > 100 µM | DLD-1 > 100 µM | TK-10 > 100 µM | BT-549 > 100 µM | DU-145 > 100 µM | UACC-62 > 100 µM | K562 > 100 µM | SK-MEL-28 > 100 µM | OVCAR-8 > 100 µM | NCI-H522 > 100 µM | Malme-3M > 100 µM | OVCAR-3 > 31.6 µM | HCT-116 > 100 µM | RPMI-8226 > 100 µM | A498 > 21.5 µM | HCC 2998 > 100 µM | HL-60 > 100 µM | CAKI-1 > 100 µM | SK-OV-3 > 100 µM | HOP-92 > 100 µM | U-251 > 100 µM | OVCAR-5 > 100 µM | IGROV-1 > 100 µM | SNB-19 > 100 µM | OVCAR-4 > 100 µM | NCI/ADR-RES > 100 µM | ACHN > 100 µM | SW-620 > 100 µM

CC1C(=O)C(C)C(c2ccco2)N(N=O)C1c1ccco1 (centres undefined)
> 100 µM: HCT-15
active: XF498 < 0.01 µM
inactive: M19-MEL > 100 µM | UO-31 > 100 µM | NCI-H23 > 100 µM | SNB-75 > 82.8 µM | HT-29 > 100 µM | SF-539 > 100 µM | NCI-H460 > 100 µM | KM12 > 100 µM | DMS-273 > 100 µM | SK-MEL-5 > 100 µM | EKVX > 100 µM | SNB-78 > 100 µM | RXF 393 > 100 µM | SF-295 > 100 µM | COLO 205 > 100 µM | UACC-257 > 100 µM | MCF7 > 100 µM | HOP-18 > 67.1 µM | LOX IMVI > 100 µM | CCRF-CEM > 100 µM | MOLT-4 > 100 µM | SN12C > 100 µM | SF-268 > 100 µM | HOP-62 > 100 µM | KM-20L2 > 100 µM | NCI-H226 > 100 µM | A549 > 100 µM | SK-MEL-2 > 100 µM | DLD-1 > 100 µM | UACC-62 > 100 µM | K562 > 100 µM | SK-MEL-28 > 100 µM | OVCAR-8 > 100 µM | NCI-H522 > 100 µM | Malme-3M > 100 µM | OVCAR-3 > 100 µM | HCT-116 > 100 µM | RPMI-8226 > 100 µM | A498 > 100 µM | HCC 2998 > 100 µM | HL-60 > 100 µM | CAKI-1 > 100 µM | SK-OV-3 > 100 µM | HOP-92 > 68.4 µM | U-251 > 100 µM | OVCAR-5 > 100 µM | IGROV-1 > 100 µM | SNB-19 > 84.1 µM | OVCAR-4 > 100 µM | NCI/ADR-RES > 100 µM | SW-620 > 100 µM

O=C1Cc2ccccc2CCc2ccsc21
inactive: M19-MEL > 100 µM | UO-31 > 100 µM | NCI-H23 > 100 µM | SNB-75 61.2 µM | HT-29 > 100 µM | SF-539 > 100 µM | NCI-H460 > 100 µM | KM12 > 100 µM | DMS-273 > 100 µM | SK-MEL-5 > 100 µM | EKVX > 100 µM | 786-0 > 100 µM | SNB-78 > 100 µM | RXF 393 > 100 µM | SR > 100 µM | SF-295 > 100 µM | COLO 205 > 100 µM | XF498 > 100 µM | UACC-257 > 100 µM | HOP-18 70.8 µM | LOX IMVI > 100 µM | CCRF-CEM > 100 µM | MOLT-4 > 100 µM | M14 > 100 µM | SN12C > 100 µM | SF-268 > 100 µM | KM-20L2 > 100 µM | NCI-H226 > 100 µM | A549 > 100 µM | LXFL 529 > 100 µM | SK-MEL-2 > 100 µM | DLD-1 > 100 µM | TK-10 > 100 µM | K562 > 100 µM | SK-MEL-28 > 100 µM | OVCAR-8 > 100 µM | NCI-H522 > 100 µM | Malme-3M > 100 µM | OVCAR-3 > 100 µM | HCT-116 > 100 µM | RPMI-8226 > 100 µM | A498 > 100 µM | HCC 2998 > 100 µM | HL-60 92.3 µM | CAKI-1 > 100 µM | SK-OV-3 > 100 µM | HOP-92 40 µM | U-251 > 100 µM | OVCAR-5 31.3 µM | IGROV-1 > 100 µM | SNB-19 > 100 µM | OVCAR-4 > 100 µM | SW-620 > 100 µM
> 100 µM: HCT-15

CCC/C=C\C=C\C1(NS(=O)(=O)c2ccc(C)cc2)CCC(C(C)(C)C)CC1 (centres undefined)
inactive: M19-MEL 17.1 µM | UO-31 23.7 µM | NCI-H23 14.1 µM | SNB-75 23.4 µM | HT-29 15.5 µM | SF-539 35.7 µM | NCI-H460 14.6 µM | KM12 16.5 µM | DMS-273 13.4 µM | SK-MEL-5 16.7 µM | EKVX 14.2 µM | 786-0 10.2 µM | SNB-78 19.1 µM | RXF 393 13.7 µM | SR 3.15 µM | SF-295 19.9 µM | COLO 205 14.5 µM | XF498 16.7 µM | UACC-257 16.8 µM | HOP-18 14.9 µM | CCRF-CEM 9.1 µM | MOLT-4 7.1 µM | M14 13.3 µM | SN12C 11.2 µM | SF-268 17.4 µM | HOP-62 20.7 µM | KM-20L2 16.9 µM | NCI-H226 20.5 µM | A549 15.4 µM | LXFL 529 25.2 µM | SK-MEL-2 13.5 µM | DLD-1 19.4 µM | TK-10 24.9 µM | UACC-62 21.3 µM | K562 12.5 µM | OVCAR-8 > 10 µM | NCI-H522 3.2 µM | Malme-3M 14.9 µM | OVCAR-3 7.01 µM | HCT-116 15.4 µM | RPMI-8226 7.96 µM | A498 21.2 µM | HCC 2998 16.9 µM | HL-60 6.93 µM | CAKI-1 19.6 µM | SK-OV-3 26.7 µM | HOP-92 22.9 µM | U-251 12.5 µM | OVCAR-5 21.5 µM | IGROV-1 27 µM | SNB-19 35.5 µM | OVCAR-4 17.1 µM | ACHN 18.2 µM | SW-620 17.9 µM
17.5 µM: HCT-15

CCCCCC(O)C1C(=O)OC(C)C(O)/C=C/C=C/C=C/C=C/C=C(\C)C(O)C(O)C(O)CC(O)CC(O)CC(O)CC(O)CC1O (centres undefined)
2.42 µM: HCT-15
inactive: T47D > 100 µM | MDA-N > 100 µM | M19-MEL 1.24 µM | UO-31 1.79 µM | PC-3 > 100 µM | NCI-H460 1.56 µM | DMS-273 1.34 µM | 786-0 > 100 µM | SNB-78 1.88 µM | MDA-MB-231 > 100 µM | MDA-MB-435 > 100 µM | RXF 393 1.41 µM | SR > 100 µM | XF498 1.49 µM | HOP-18 2.48 µM | M14 > 100 µM | DMS-114 1.53 µM | Hs-578T > 100 µM | KM-20L2 2.28 µM | DLD-1 1.6 µM | TK-10 > 100 µM | BT-549 > 100 µM | DU-145 > 100 µM | NCI-H522 1.73 µM | HCC 2998 1.76 µM | HL-60 > 100 µM | HOP-92 1.71 µM | OVCAR-4 1.82 µM | NCI/ADR-RES 1.51 µM | ACHN > 100 µM
